Test results taken from US8318708B2, “Use of vitamin D receptor agonists, ligands, and precursors to treat pancreatic fibrosis” (Salk Institute for Biological Studies, priority 2007, dated 2012).

Assays:
VDR [1] = molecular target: T1, VDR (Rattus norvegicus, UniProt P13053); test: QPCR of VDR, Cyp24a1 and Hnf4α mRNA in primary rat hepatocytes; assay type: cell-based; design: endogenous in cells; host or cells: primary rat hepatic stellate cells, sinusoidal endothelial cells, Kupffer cells and hepatocytes (Sprague-Dawley rats); details: 24 hours, TGF-β1 2 ng/mL, calcitriol 10 nM
T1 sequence (P13053 1-423): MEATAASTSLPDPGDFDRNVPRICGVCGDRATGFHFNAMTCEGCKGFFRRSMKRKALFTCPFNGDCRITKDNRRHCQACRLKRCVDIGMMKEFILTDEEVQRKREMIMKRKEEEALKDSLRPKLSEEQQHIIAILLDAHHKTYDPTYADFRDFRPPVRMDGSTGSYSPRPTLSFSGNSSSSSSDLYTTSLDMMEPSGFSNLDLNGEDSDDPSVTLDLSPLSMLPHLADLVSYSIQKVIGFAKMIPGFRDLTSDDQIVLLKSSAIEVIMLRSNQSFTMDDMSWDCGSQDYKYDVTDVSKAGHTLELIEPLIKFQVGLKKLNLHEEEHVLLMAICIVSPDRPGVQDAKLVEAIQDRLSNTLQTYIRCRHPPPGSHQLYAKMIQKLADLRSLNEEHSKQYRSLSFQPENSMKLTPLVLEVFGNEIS

VDR [2] = molecular target: T1, VDR; test: Western blot of VDR in Kupffer cells (KCs); assay type: cell-based; design: endogenous in cells; host or cells: primary rat hepatic stellate cells, sinusoidal endothelial cells, Kupffer cells and hepatocytes (Sprague-Dawley rats); details: FIG. 10B
Description: (§1) Hepatic sinusoidal endothelial cells (SECs) and Kupffer cells (KCs) were elutriated from rat liver and maintained in cell culture.

HSCs = details: rat HSCs 24 h; LPS 15 ng/ml, TGFβ 2 ng/ml, calcitriol 10 nM; control = 1
Description: For Illumina microarray analysis, Illumina TotalPrep RNA Amplification Kit (Ambion; Catalog # IL1791) was used with the manufacturer's instructions for the RNA amplification. […] Essentially, biotinylated cRNA was prepared according to the manufacturer's directions starting with 200 ng total RNA. Hybridization to the Illumina Sentrix RatRef-12 v.1 and Mouse RefSeq version 2 Expression BeadChips (Illumina, Inc., San Diego, Calif.), washing and scanning were performed according to the Illumina BeadStation 500× manual (revision C). […] RNA is isolated using Trizol and the quality/integrity of the total RNA verified using a Bioanalyzer (Agilent).
Microarray experiments were repeated two times with RNA from two experiments where HSCs were isolated from two different rats and for each condition triplicate samples were used. The “Detection Score” was used to determine expression using the Illumina platform. It is a statistical measure in the BeadStudio software (version 1.5.0.34), which is computed based on the Z-value of a gene relative to the Z-value of the negative controls. The Illumina data were adjusted (“normalized”) using a cubic spline function. […] The expression difference score, DiffScore, takes into account background noise and sample variability. […] Illumina expression arrays utilize gene-specific 50-mer oligonucleotide probes with an average of 30 replicates of each probe bead per individual array.
Two different HSCs from different rats were used for the lumina microarray analysis. […] Values are expressed as fold change relative to control cells treated with vehicle alone.

VDR [3] = molecular target: T1, VDR; test: Western blot of VDR in sinusoidal endothelial cells (SECs); assay type: cell-based; design: endogenous in cells; host or cells: primary rat hepatic stellate cells, sinusoidal endothelial cells, Kupffer cells and hepatocytes (Sprague-Dawley rats); details: FIG. 10A
Description: as §1

VDR [4] = molecular target: T2, VDR (Homo sapiens, UniProt P11473); test: Real-time qPCR of CYP24A1 in human LX-2 cell line; assay type: cell-based; details: LX-2 cells overnight; 1,α25(OH)2D3 1 nM, TGF β1 100 pM
T2 construct: endogenous in cells; host or cells: human LX-2 hepatic stellate cell line
T2 sequence (P11473 1-427): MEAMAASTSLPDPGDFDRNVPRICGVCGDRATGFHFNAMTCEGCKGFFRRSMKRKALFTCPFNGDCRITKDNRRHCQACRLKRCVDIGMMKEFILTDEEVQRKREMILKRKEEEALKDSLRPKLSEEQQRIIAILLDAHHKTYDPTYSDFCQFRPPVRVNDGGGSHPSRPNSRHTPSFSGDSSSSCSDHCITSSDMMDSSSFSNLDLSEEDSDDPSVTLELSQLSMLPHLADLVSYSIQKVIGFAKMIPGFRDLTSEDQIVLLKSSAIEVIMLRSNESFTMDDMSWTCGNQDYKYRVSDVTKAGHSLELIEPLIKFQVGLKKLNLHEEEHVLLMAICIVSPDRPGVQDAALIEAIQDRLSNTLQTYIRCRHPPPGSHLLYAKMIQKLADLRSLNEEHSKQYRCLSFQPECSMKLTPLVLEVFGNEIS
Description: Human LX-2 cells were grown to 50% confluence in DMEM with 10% FBS in 6-Well plates.
For qRT-PCR, 500 ng of deoxyribonuclease-treated total RNA was reverse transcribed into cDNA using SuperScript™ III reverse transcriptase essentially as described by the manufacturer (Invitrogen). Quantification of gene of interest mRNA was performed using a Rotor-Gene, RG 6000 (Corbett Research). […] Human B2M primers were from Applied Biosystems.
TGFβ signaling is the key mediator in hepatic fibrogenesis, triggering the transition of HSCs into myofibroblast-like cells and thereby stimulating synthesis of ECM proteins. Thus, TGFβ1 is produced locally in the organ as part of the fibrotic process It has been previously reported that TGFB signaling can influence the activity of VDR-dependent genes, as depicted in (FIG. 8A). In this model, TGFβ activation results in SMAD3 phosphorylation, inducing its translocation into the nucleus where it associates with the ligand bound VDR complex. Phosphorylated SMAD3 acts as a co-activator in the VDR/vitaminD3 complex enhancing the transcriptional potential of VDR on target genes. To understand the interplay between TGFB and VDR signaling pathways, the effects of TGFβ on the well characterized VDR gene target Cyp24α1 were examined.

VDR [5] = test: Western blot of VDR in hepatocytes treated with TGF-β1; assay type: cell-based, rat; human; details: TGF-β1 2 ng/mL, 24 hours, FIG. 14
Description: Primary rat hepatocytes were isolated from Sprague-Dawley rats by collagenase in situ perfusion and plated on collagen in Williams E medium. The immortalized human hepatocyte (IHH) cell line was cultured in DMEM/F12+GlutaMax with insulin and dexamethasone. Primary rat hepatocytes or immortalized human hepatocytes were cultured for two days, then subsequently treated with TGF-β1 (2 ng/mL human, recombinant expressed in CHO cells from Sigma-Aldrich, # T7039) for 24 hours and compared to untreated controls. Protein was prepared from harvested cells and western blotting for VDR was accomplished using a specific anti-VDR antibody (anti-human VDR antibody from R&D systems CAT # PP-H4537-00 and rat anti-VDR monoclonal antibody from Chemocon International CAT # MAB1360). Recombinant human VDR protein was included as a positive control.

Substance: TGF-β1: transforming growth factor beta 1; human recombinant from Sigma-Aldrich T7039
- Cyp24a1 mRNA expression (VDR [1]): no effect
- HNF4α expression (VDR [1]): some increase
- VDR mRNA expression (VDR [1]): capable of inducing
- VDR protein expression (VDR [2]): induced
- Ccl5 gene expression (HSCs): 0.957 fold change
- Ccl12 gene expression (HSCs): 1.167 fold change
- Ccl20 gene expression (HSCs): 0.999 fold change
- Col1a1 gene expression (HSCs): 3.014 fold change
- Col1a2 gene expression (HSCs): 2.256 fold change
- Col3a1 gene expression (HSCs): 1.878 fold change
- Col5a1 gene expression (HSCs): 2.322 fold change
- Col5a2 gene expression (HSCs): 1.583 fold change
- Col6a3 gene expression (HSCs): 1.611 fold change
- Col8a1 gene expression (HSCs): 2.240 fold change
- Csf2 gene expression (HSCs): 0.803 fold change
- Ctgf gene expression (HSCs): 1.919 fold change
- Cx3cl1 gene expression (HSCs): 0.864 fold change
- Cxcl5 gene expression (HSCs): 0.971 fold change
- Cxcl9 gene expression (HSCs): 0.875 fold change
- Cxcl11 gene expression (HSCs): 1.05 fold change
- Icam1 gene expression (HSCs): 1.371 fold change
- Il1a gene expression (HSCs): 0.517 fold change
- Il1b gene expression (HSCs): 0.322 fold change
- Il6 gene expression (HSCs): 0.791 fold change
- Il10 gene expression (HSCs): 0.837 fold change
- Mmp7 gene expression (HSCs): 1.692 fold change
- Mmp10 gene expression (HSCs): 1.856 fold change
- Mmp13 gene expression (HSCs): 1.342 fold change
- Smad2 gene expression (HSCs): 1.381 fold change
- Smad3 gene expression (HSCs): 1.116 fold change
- Smad4 gene expression (HSCs): 1.325 fold change
- Tgfb1 gene expression (HSCs): 1.502 fold change
- Tgfbr1 gene expression (HSCs): 1.317 fold change
- Timp1 gene expression (HSCs): 1.026 fold change
- Timp2 gene expression (HSCs): 1.823 fold change
- Tlr2 gene expression (HSCs): 1.092 fold change
- Tlr4 gene expression (HSCs): 1.349 fold change
- Tnf gene expression (HSCs): 1.078 fold change
- Tnfrsf5 gene expression (HSCs): 1.339 fold change
- Tnfrsf14 gene expression (HSCs): 1.373 fold change
- Vcam1 gene expression (HSCs): 1.482 fold change
- VDR protein expression (VDR [3]): induced
- CYP24a1 gene expression (QPCR, normalized to 36B4) (VDR [4]): no effect
- Increase in VDR expression (western blot) (VDR [5]): at least 5 fold
